# In patent US9580426B2, “Compounds that expand hematopoietic stem cells” (Novartis AG, priority 2008, dated 2017):
# What was measured:
# mPB CD34+ HSCs = assay: Cobblestone area-forming cell (CAFC) assay; type: cell-based, human; settings: 1 micromolar; mPB CD34+ HSCs after 5 days of culture
# Procedure: Cobblestone area-forming cell (CAFC) assays: The FBMD-1 stromal cells are maintained in 25-cm^2 flasks and are trypsinized after ⅓ confluence. Since this non-transformed line ages, and therefore gradually loses its potential to support CAFC growth at late stages, all feeders are used below passage 20. For supporting CAFC growth in 96-well plates, 1×10^3 stromal cells are seeded per well. The cultures are maintained in Iscove's medium supplemented with 10% fetal calf serum (FCS), 2.5% horse serum (HS), 1% L-glutamine, 1% penicillin-streptomycin, and 1×10^−5 M hydrocortisone at 37° C. in a humidified atmosphere of 5% CO2 in air. After stromal layers reach confluency, they are inoculated with CD34^+ HSCs that have been cultured for 5 days with vehicle or a compound of the invention. MNCs are added at 8 serial 1:3 dilutions (starting at 25,000 cells/well), with 10 wells for each cell dose. The dilutions with wells with at least one phase-dark hematopoietic clone (cobblestone area) of at least five cells beneath the stromal layer are determined at week 4. […]
# human AHR = target: T1, human AHR (Homo sapiens, UniProt P35869); assay: cell-based; type: cell-based
# T1 construct: endogenous in cells; host or cells: unnamed human cells carrying an AHR-dependent luciferase reporter
# T1 sequence (P35869 11-848): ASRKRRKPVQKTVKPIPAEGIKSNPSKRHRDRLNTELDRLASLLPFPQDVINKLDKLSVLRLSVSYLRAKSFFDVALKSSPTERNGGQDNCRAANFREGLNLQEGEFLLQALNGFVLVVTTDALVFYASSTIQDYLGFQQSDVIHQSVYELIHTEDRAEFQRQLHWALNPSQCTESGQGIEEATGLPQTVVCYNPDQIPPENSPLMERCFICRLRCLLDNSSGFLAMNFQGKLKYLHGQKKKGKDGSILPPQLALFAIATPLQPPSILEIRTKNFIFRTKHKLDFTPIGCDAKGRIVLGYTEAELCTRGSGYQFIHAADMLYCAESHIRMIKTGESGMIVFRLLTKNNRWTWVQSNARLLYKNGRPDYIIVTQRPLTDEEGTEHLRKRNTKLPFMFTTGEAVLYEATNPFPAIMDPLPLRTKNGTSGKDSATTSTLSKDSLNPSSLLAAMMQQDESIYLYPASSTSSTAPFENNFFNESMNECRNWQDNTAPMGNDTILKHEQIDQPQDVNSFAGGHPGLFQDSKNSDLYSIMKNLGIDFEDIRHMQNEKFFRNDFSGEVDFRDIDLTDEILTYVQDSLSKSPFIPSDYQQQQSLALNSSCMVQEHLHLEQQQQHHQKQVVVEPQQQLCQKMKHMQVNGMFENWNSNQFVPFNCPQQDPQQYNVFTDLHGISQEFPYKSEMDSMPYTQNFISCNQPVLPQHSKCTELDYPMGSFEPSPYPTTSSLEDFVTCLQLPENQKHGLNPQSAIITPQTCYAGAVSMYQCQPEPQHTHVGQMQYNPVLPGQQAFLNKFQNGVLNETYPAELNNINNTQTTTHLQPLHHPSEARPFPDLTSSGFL
# Procedure: Further, the ability of Example 1 to block 2,3,7,8-tetrachlorodibenzo-p-dioxin (TCDD, dioxin)-mediated CYP1B1 mRNA expression by qPCR in mPB-derived CD34^+ cells was determined. Treatment with TCDD (3 nM) caused a 4.5-fold increase in the level of CYP1B1 mRNA compared with the vehicle control (0.01% toluene). […] To determine the effects of Example 1 in AHR transcription the ability of Example 1 to inhibit a dioxin-induced AHR dependent luciferase reporter gene assay was tested.
# [1] = tested on: Primary adult CD34+ human hematopoietic stem cells (HSCs); assay: % CD34+ assay: HSC expansion screen, dose response; type: cell-based; settings: Homo sapiens, Hematopoietic stem cell; dose response 1 nM to 10 μM; total number and/or percent of CD34+ cells
# In short: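 Human CD34+ cells, chiefly MACS-enriched from G-CSF-mobilized peripheral blood, were grown at 37° C., 5% CO2 in serum-free StemSpan with TPO, IL-6, Flt-3 ligand and SCF (50 ng/mL each), plus compound or DMSO. Cultures were kept at 10^4–5×10^5 cells/mL and assessed by flow cytometry for CD34 expression. EC50 came from a 1 nM–10 μM dose response.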
structure (smiles),measurement,setting,value
"CC(C)n1cnc2c(NCCc3ccc(O)cc3)nc(-c3csc4ccccc34)nc21 [Example 1, 4-(2-(2-(benzo[b]thiophen-3-yl)-9-isopropyl-9H-purin-6-ylamino)ethyl)phenol]",increase in the number of cobblestone area forming cells compared with DMSO control,mPB CD34+ HSCs,greater than 2 fold
same,EC50,human AHR,127 nM
same,dioxin-induced AHR dependent transcription,"human AHR; 1 μM, cells expressing human AHR",completely abolished
same,agonist activity (induction of AHR dependent transcription),human AHR; human cells,failed to induce AHR dependent transcription
same,EC50,[1],120 nM
